Results reported in the supplement of paper PMC10307832.

Assays:
Assay in all cases: relative viability (nuclei count vs DMSO), 5 days (fraction); higher = more cells survive
[1] = compound: COc1cc(-c2nn([C@H]3CC[C@H](N4CCN(C(C)=O)CC4)CC3)c3ncnc(N)c23)ccc1NC(=O)c1cc2ccccc2n1C + CS(=O)(=O)N1CCN(Cc2cc3nc(-c4cccc5[nH]ncc45)nc(N4CCOCC4)c3s2)CC1 [Pictilisib] (partner 1 µM)
Method in brief: (§1)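 Nuclei were stained with Hoechst during a one-step fixation (final 0.05% Triton X-100, 1% formaldehyde, 1 ug/ml Hoechst) carried out 5 days after dosing, then counted on 4× images. The cells, lung cancer lines in 1536-well plates, had been dosed by pin tool the day after seeding with one drug alone or a fixed anchor-drug dose plus five library-drug doses (not always all listed) in √10 steps. Relative viability is the nuclei count in treated wells divided by that in vehicle wells, and each value is the median of duplicate plates.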

[2] = compound: COc1cc(-c2nn([C@H]3CC[C@H](N4CCN(C(C)=O)CC4)CC3)c3ncnc(N)c23)ccc1NC(=O)c1cc2ccccc2n1C + CC1(C)CCC(c2ccc(Cl)cc2)=C(CN2CCN(c3ccc(C(=O)NS(=O)(=O)c4ccc(N[C@H](CCN5CCOCC5)CSc5ccccc5)c(S(=O)(=O)C(F)(F)F)c4)cc3)CC2)C1 [Navitoclax] (partner 0.5 µM)
Method in brief: as §1

[3] = compound: COc1cc(-c2nn([C@H]3CC[C@H](N4CCN(C(C)=O)CC4)CC3)c3ncnc(N)c23)ccc1NC(=O)c1cc2ccccc2n1C + C[C@]1(O)C[C@@H](c2nc(-c3ccc4ccc(-c5ccccc5)nc4c3)c3c(N)nccn32)C1 [Linsitinib] (partner 1 µM)
Method in brief: as §1

Midostaurin + Vorinostat = compound: CO[C@@H]1[C@H](N(C)C(=O)c2ccccc2)C[C@H]2O[C@]1(C)n1c3ccccc3c3c4c(c5c6ccccc6n2c5c31)C(=O)NC4 [Midostaurin] + O=C(CCCCCCC(=O)Nc1ccccc1)NO [Vorinostat] (partner 1 µM)
Method in brief: as §1

Midostaurin + OSI-027 = compound: CO[C@@H]1[C@H](N(C)C(=O)c2ccccc2)C[C@H]2O[C@]1(C)n1c3ccccc3c3c4c(c5c6ccccc6n2c5c31)C(=O)NC4 [Midostaurin] + COc1cccc2cc(-c3nc([C@H]4CC[C@H](C(=O)O)CC4)n4ncnc(N)c34)[nH]c12 [OSI-027] (partner 0.5 µM)
Method in brief: as §1

| Cell Line | relative viability ([1]; first compound 0.0128 µM) | relative viability ([1]; first compound 0.04048 µM) | relative viability ([1]; first compound 0.128 µM) | relative viability ([1]; first compound 1.28 µM) | relative viability ([2]; first compound 0.0128 µM) | relative viability ([2]; first compound 0.04048 µM) | relative viability ([2]; first compound 0.128 µM) | relative viability ([2]; first compound 1.28 µM) | relative viability ([3]; first compound 0.0128 µM) | relative viability ([3]; first compound 0.04048 µM) | relative viability ([3]; first compound 0.128 µM) | relative viability ([3]; first compound 1.28 µM) | relative viability (Midostaurin + Vorinostat; first compound 0.01 µM) | relative viability (Midostaurin + Vorinostat; first compound 0.03162 µM) | relative viability (Midostaurin + Vorinostat; first compound 0.1 µM) | relative viability (Midostaurin + Vorinostat; first compound 0.3162 µM) | relative viability (Midostaurin + OSI-027; first compound 0.03162 µM) | relative viability (Midostaurin + OSI-027; first compound 0.1 µM) | relative viability (Midostaurin + OSI-027; first compound 0.3162 µM) | relative viability (Midostaurin + OSI-027; first compound 0.01 µM) |
| --- | --- | --- | --- | --- | --- | --- | --- | --- | --- | --- | --- | --- | --- | --- | --- | --- | --- | --- | --- | --- |
| HCC-44 | 0.675 | 0.67 | 0.542 | 0.542 | 1.13 | 0.913 | 1.02 | 0.934 | 0.764 | 0.687 | 0.692 | 0.536 | 1.08 | 1.06 | 1.11 | 1.16 | 0.501 | 0.529 | 0.401 | – |
| HCC-78 | 0.23 | 0.181 | 0.21 | 0.196 | 0.947 | 0.901 | 0.87 | 0.621 | 0.573 | 0.643 | 0.513 | 0.436 | 0.545 | 0.438 | 0.365 | 0.312 | 0.332 | 0.381 | 0.299 | 0.432 |
| HCC-366 | 0.09 | 0.129 | 0.161 | 0.141 | 1.09 | 1 | 1.05 | 0.821 | 0.531 | 0.513 | 0.531 | 0.257 | 0.364 | 0.306 | 0.308 | 0.0688 | 0.954 | 0.567 | 0.811 | 0.961 |
| HCC-827 | 1.1 | 1.22 | 0.902 | 0.783 | 1.01 | 1.06 | 1.1 | 1.04 | 0.957 | 1.02 | 0.958 | 0.995 | 0.869 | 0.724 | 0.897 | 0.873 | 0.708 | 0.821 | 0.8 | 0.719 |
| HOP-62 | 0.831 | 0.285 | 0.738 | 0.604 | 1.06 | 1.18 | 0.825 | 1.1 | 0.955 | 0.964 | 0.881 | 0.843 | 0.545 | 0.607 | 0.676 | 0.5 | 0.754 | 0.947 | 0.686 | 0.779 |
| IA-LM | 0.345 | 0.443 | 0.324 | 0.334 | 0.87 | 1.08 | 0.87 | 0.968 | 0.606 | 0.299 | 0.698 | 0.815 | 0.822 | 0.889 | 0.943 | 0.907 | – | – | – | – |
| LCLC-103H | 0.656 | 0.691 | 0.571 | 0.49 | – | – | – | – | 1.12 | 1.21 | 0.957 | 1.01 | 0.824 | 0.717 | 0.806 | 0.792 | 0.417 | 0.425 | 0.465 | 0.506 |
| NCI-H358 | 0.395 | 0.331 | 0.277 | 0.249 | – | – | – | – | 0.664 | 0.73 | 0.681 | 0.462 | 0.625 | 0.536 | 0.391 | 0.197 | 0.73 | 0.788 | 0.776 | 0.894 |
| NCI-H522 | – | – | – | – | – | – | – | – | – | – | – | – | 0.862 | 1.18 | 0.827 | 1.03 | 0.729 | 0.668 | 0.766 | 0.712 |
| NCI-H650 | 0.944 | 0.96 | 0.944 | 0.866 | – | – | – | – | 0.854 | 1.26 | 0.894 | 0.64 | 0.431 | 0.474 | 0.875 | 0.412 | 0.455 | 0.507 | 0.456 | 0.439 |
| NCI-H661 | 0.39 | 0.344 | 0.392 | 0.254 | – | – | – | – | 0.618 | 0.507 | 0.448 | 0.357 | 0.777 | 0.72 | 0.792 | 0.739 | 0.638 | 0.719 | 0.607 | 0.74 |
| NCI-H1299 | 0.681 | 0.806 | 0.668 | 0.385 | 1.06 | 1.15 | 1.08 | 1.13 | 1.01 | 0.871 | 0.999 | 0.655 | – | – | – | – | – | – | – | – |
| NCI-H1563 | 0.682 | 0.641 | 0.656 | 0.606 | – | – | – | – | 1.24 | 1.12 | 1.31 | 0.903 | – | – | – | – | 0.727 | 0.72 | 0.745 | 0.766 |
| NCI-H1623 | – | – | – | – | – | – | – | – | – | – | – | – | – | – | – | – | 0.471 | 0.465 | 0.561 | 0.455 |
| NCI-H1648 | – | – | – | – | – | – | – | – | – | – | – | – | 0.534 | – | – | 0.497 | 0.221 | 0.275 | 0.233 | 0.285 |
| NCI-H1650 | 0.548 | 0.651 | 0.513 | 0.547 | 1.34 | 1.5 | 1.44 | 1.1 | – | – | – | – | 0.57 | 0.606 | 0.585 | 0.793 | 0.71 | 0.647 | 0.597 | 0.574 |
| NCI-H1703 | 0.235 | 0.26 | 0.222 | 0.163 | 1.45 | 1.17 | 0.736 | 0.236 | 0.984 | 0.193 | 0.637 | 0.323 | – | – | – | – | – | – | – | – |
| NCI-H1792 | 0.237 | 0.191 | 0.306 | 0.354 | 0.611 | 0.499 | 0.609 | 0.624 | 0.565 | 0.485 | 0.392 | 0.449 | – | – | – | – | 0.8 | 0.659 | 0.617 | 0.664 |
| NCI-H2170 | 0.297 | 0.353 | 0.334 | 0.248 | 0.652 | 0.749 | 0.579 | 0.453 | – | – | – | – | 0.857 | 0.843 | 0.774 | 0.699 | 0.681 | 0.683 | 0.79 | 0.697 |
| NCI-H2342 | – | – | – | – | – | – | – | – | – | – | – | – | 0.741 | 0.764 | 0.836 | 0.831 | 0.619 | 0.658 | 0.74 | 0.667 |
| SW 900 | – | – | – | – | – | – | – | – | – | – | – | – | 0.402 | 0.502 | 0.52 | 0.458 | 0.484 | 0.75 | 0.478 | 0.541 |
